Earlier results in patent US10603330B2, “Arginase inhibitors as therapeutics” (Mars, Incorporated, priority 2010, dated 2020).

Tests used:
[1] = system: central airways responsiveness; conditions: murine chronic asthma model
[2] = system: EAE; conditions: animals undergoing experimental autoimmune encephalomyelitis
[3] = system: bacterial arginase (H. pylori); conditions: inhibition of bacterial arginase
[4] = system: blood pressure; conditions: spontaneously hypertensive animals

Structure (SMILES): N[C@@H](CSCCB(O)O)C(=O)O [S-(2-boronoethyl)-L-cysteine]
- methacholine induced responsiveness of the central airways [1]: attenuated

Structure (SMILES): NC(CCCCB(O)O)C(=O)O (stereo not shown) [ABH, amino-6-boronohexanoic acid]
- severity of EAE vs control animals [2]: much milder form of EAE

Structure (SMILES): NC(=NCCC[C@H](N)C(=O)O)NO [NOHA]
- CD3 expression on T-cells [3]: reestablished CD3 expression on T-cells

Structure (SMILES): N=C(NO)NCC[C@H](N)C(=O)O [nor-NOHA, N^ω-hydroxy-nor-L-arginine]
- blood pressure [4]: lowered blood pressure
